# Assay results from article PMC10338470, “Phase 1 study of GSK3368715, a type I PRMT inhibitor, in patients with advanced solid tumors” (British Journal of Cancer, 2023).
# Experiments:
# Format in all cases: in vivo, human
# [1] = tested on: advanced-stage solid tumors; experiment: Best overall response per RECIST 1.1
# Procedure: Adverse events were coded using the standard MedDRA groupings and graded according to NCI-CTCAE version 5.0. Clinical chemistry, urinalysis, and coagulation tests were performed predose on days 1, 8, 15, 22, and weekly thereafter. Tumor imaging occurred every 8 weeks until week 33, and then every 16 weeks thereafter. Adverse events and DLTs were summarized descriptively by dose cohort. Pharmacokinetic parameters of GSK3368715 and its metabolites (GSK3963583 and GSK3983164) were estimated in the PK/PD population (all participants for whom a PK sample was obtained) using a noncompartmental analysis model (WinNonlin version 8.1) and summarized descriptively. Best overall response as per RECIST 1.1 was summarized descriptively by dose cohort. Levels of tumor cell and plasma pharmacodynamic biomarkers were also summarized descriptively.
# [2] = Plasma pharmacokinetics (LC-MS-MS, noncompartmental analysis); conditions: for AUC0-24, geometric mean (%CVb) / Cmax, geometric mean (%CVb) / t1/2, geometric mean (%CVb) / tmax, median (range): plasma
# Procedure: In both the dose-escalation and PK/PD cohorts, plasma samples for PK analysis were obtained following dosing on day 1 and pre- and postdose on days 2, 3, 4, 8, 15, 16, 22, and predose every 4 weeks thereafter. Plasma concentrations for GSK3368715 and its metabolites (GSK3963583, GSK3983164, and GSK3510519) were quantified using a validated ultra high-performance liquid chromatography-mass spectrometry-mass spectrometry (LC-MS-MS) method. PK parameters were analyzed using noncompartmental methods.
# Adverse events and DLTs were summarized descriptively by dose cohort. Pharmacokinetic parameters of GSK3368715 and its metabolites (GSK3963583 and GSK3983164) were estimated in the PK/PD population (all participants for whom a PK sample was obtained) using a noncompartmental analysis model (WinNonlin version 8.1) and summarized descriptively. Best overall response as per RECIST 1.1 was summarized descriptively by dose cohort. Levels of tumor cell and plasma pharmacodynamic biomarkers were also summarized descriptively.
# [3] = tested on: protein SDMA; experiment: Protein SDMA in formalin-fixed paired tumor biopsies
# [4] = GSK3368715 50-mg dose escalation cohort, Day 1
# [5] = GSK3368715 50-mg dose escalation cohort, Day 15
# [6] = GSK3368715 100-mg PK/PD cohort, Day 1
# [7] = GSK3368715 100-mg PK/PD cohort, Day 15
# [8] = GSK3368715 100-mg dose escalation cohort, Day 1
# [9] = GSK3368715 100-mg dose escalation cohort, Day 15
# [10] = GSK3368715 100-mg total, Day 15
compound,measurement,setting,value
CCOCC1(COCC)CCC(c2[nH]ncc2CN(C)CCNC)CC1 [GSK3368715],Best response: Complete response,[1]; 50 mg (n = 3),0 n (%)
same,Best response: Missing,[1]; 50 mg (n = 3),0 n (%)
same,Best response: Not evaluable,[1]; 50 mg (n = 3),1 (33) n (%)
same,Best response: Partial response,[1]; 50 mg (n = 3),0 n (%)
same,Best response: Progressive disease,[1]; 50 mg (n = 3),2 (67) n (%)
same,Best response: Stable disease,[1]; 50 mg (n = 3),0 n (%)
same,Overall response rate: Complete response + partial response,[1]; 50 mg (n = 3),0 n (%)
same,Best response: Complete response,[1]; 100 mg (n = 16),0 n (%)
same,Best response: Missing,[1]; 100 mg (n = 16),0 n (%)
same,Best response: Not evaluable,[1]; 100 mg (n = 16),0 n (%)
same,Best response: Partial response,[1]; 100 mg (n = 16),0 n (%)
same,Best response: Progressive disease,[1]; 100 mg (n = 16),10 (63) n (%)
same,Best response: Stable disease,[1]; 100 mg (n = 16),6 (38) n (%)
same,Overall response rate: Complete response + partial response,[1]; 100 mg (n = 16),0 n (%)
same,Best response: Complete response,[1]; 200 mg (n = 12),0 n (%)
same,Best response: Missing,[1]; 200 mg (n = 12),3 (25) n (%)
same,Best response: Not evaluable,[1]; 200 mg (n = 12),0 n (%)
same,Best response: Partial response,[1]; 200 mg (n = 12),0 n (%)
same,Best response: Progressive disease,[1]; 200 mg (n = 12),6 (50) n (%)
same,Best response: Stable disease,[1]; 200 mg (n = 12),3 (25) n (%)
same,Overall response rate: Complete response + partial response,[1]; 200 mg (n = 12),0 n (%)
same,Patients with stable disease among patients with MTAP gene deletion,[1]; 6 patients with MTAP gene deletion,2
same,Patients with progressive disease among patients with MTAP gene deletion,"[1]; 6 patients with MTAP gene deletion, treatment exposure 15 days to 37 days",4
same,Best response: Complete response,[1]; Total (N = 31),0 n (%)
same,Best response: Missing,[1]; Total (N = 31),3 (10) n (%)
same,Best response: Not evaluable,[1]; Total (N = 31),1 (3) n (%)
same,Best response: Partial response,[1]; Total (N = 31),0 n (%)
same,Best response: Progressive disease,[1]; Total (N = 31),18 (58) n (%)
same,Best response: Stable disease,[1]; Total (N = 31),9 (29) n (%)
same,"Disease stability, patients",[1]; all dose groups,29%
same,Increase of Cmax and AUC0−24 with dose,[2]; dose range studied (50-200 mg),dose proportional
same,PK variability (%CVb),[2]; in vivo,high PK variability
same,"AUC0-24, geometric mean (%CVb)","[2]; GSK3368715 200 mg, Day 1",1274.7 (43.8) h•ng/mL
same,"Cmax, geometric mean (%CVb)","[2]; GSK3368715 200 mg, Day 1",336.8 (72.6) ng/mL
same,"t1/2, geometric mean (%CVb)","[2]; GSK3368715 200 mg, Day 1",15.9 h
same,"tmax, median (range)","[2]; GSK3368715 200 mg, Day 1","1.1 (0.4, 3.1) h"
same,"AUC0-24, geometric mean (%CVb)","[2]; GSK3368715 200 mg, Day 15",4861.4 (45.3) h•ng/mL
same,"Cmax, geometric mean (%CVb)","[2]; GSK3368715 200 mg, Day 15",729.2 (42.8) ng/mL
same,"t1/2, geometric mean (%CVb)","[2]; GSK3368715 200 mg, Day 15",2.9 (43.5) h
same,"tmax, median (range)","[2]; GSK3368715 200 mg, Day 15","1.0 (0.5, 3.1) h"
same,"AUC0-24, geometric mean (%CVb)",[2]; [4],259.5 (--) h•ng/mL
same,"Cmax, geometric mean (%CVb)",[2]; [4],107.2 (48.8) ng/mL
same,"tmax, median (range)",[2]; [4],"0.28 (0.25, 1.1) h"
same,"AUC0-24, geometric mean (%CVb)",[2]; [5],581.9 (101.4) h•ng/mL
same,"Cmax, geometric mean (%CVb)",[2]; [5],111.9 (48.5) ng/mL
same,"tmax, median (range)",[2]; [5],"3.0 (0.5, 3.1) h"
same,"AUC0-24, geometric mean (%CVb)",[2]; [6],937.6 (30.9) h•ng/mL
same,"Cmax, geometric mean (%CVb)",[2]; [6],237.6 (62.3) ng/mL
same,"t1/2, geometric mean (%CVb)",[2]; [6],8.8 (--) h
same,"tmax, median (range)",[2]; [6],"0.5 (0.3, 3.1) h"
same,"AUC0-24, geometric mean (%CVb)",[2]; [7],1628.8 (60.4) h•ng/mL
same,"Cmax, geometric mean (%CVb)",[2]; [7],382.7 (67.4) ng/mL
same,"t1/2, geometric mean (%CVb)",[2]; [7],1.4 (--) h
same,"tmax, median (range)",[2]; [7],"1.0 (0.5, 2.1) h"
same,"AUC0-24, geometric mean (%CVb)",[2]; [8],1020.7 (26.7) h•ng/mL
same,"Cmax, geometric mean (%CVb)",[2]; [8],145.0 (207.3) ng/mL
same,"t1/2, geometric mean (%CVb)",[2]; [8],7.2 (--) h
same,"tmax, median (range)",[2]; [8],"0.5 (0.3, 3.1) h"
same,"AUC0-24, geometric mean (%CVb)",[2]; [9],1479.6 (79.7) h•ng/mL
same,"Cmax, geometric mean (%CVb)",[2]; [9],362.9 (115.9) ng/mL
same,"t1/2, geometric mean (%CVb)",[2]; [9],1.8 (--) h
same,"tmax, median (range)",[2]; [9],"0.9 (0.5, 1.1) h"
same,"AUC0-24, geometric mean (%CVb)","[2]; GSK3368715 100-mg total, Day 1",972.3 (27.1) h•ng/mL
same,"Cmax, geometric mean (%CVb)","[2]; GSK3368715 100-mg total, Day 1",197.4 (112.1) ng/mL
same,"t1/2, geometric mean (%CVb)","[2]; GSK3368715 100-mg total, Day 1",7.9 h
same,"tmax, median (range)","[2]; GSK3368715 100-mg total, Day 1","0.5 (0.3, 3.1) h"
same,"AUC0-24, geometric mean (%CVb)",[2]; [10],1573.8 (64.2) h•ng/mL
same,"Cmax, geometric mean (%CVb)",[2]; [10],375.5 (79.9) ng/mL
same,"t1/2, geometric mean (%CVb)",[2]; [10],1.6 (15.6) h
same,"tmax, median (range)",[2]; [10],"0.9 (0.5, 2.1) h"
same,Patients with increased protein SDMA in formalin-fixed paired biopsies,[3]; 7/8 patients,88%
same,Median increase of protein SDMA in formalin-fixed paired biopsies,[3]; range −28 to 155%,48.9%
